Source: article PMC12583827, “Harnessing microbial-derived metabolites in the urinary tract to prevent infection induced catheter encrustation” (Nature Communications, 2025)
Counter-ions that a name gives are not always drawn.

What was measured:
P. mirabilis = test: Growth and viability of P. mirabilis incubated in dampening metabolites; format: cell-based, Proteus mirabilis
Protocol: 345 Supplementary Figure 5. Growth and viability of P. mirabilis incubated in dampening
346 metabolites. (A-B) P. mirabilis was cultured for ~18 hours in LB broth, then diluted 1:100 into
347 fresh LB broth with (A) the highest concentration of each dampening metabolites that was tested
348 for urease-dampening activity or (B) serial dilutions of D-imidazole lactate. Bacterial
349 suspensions were incubated at 37 °C with double-orbital shaking, and OD600 was measured
350 every 15 minutes for 18 hours. Representative growth curves (A-B) show means and standard
351 deviations from three technical replicates. (C-E) Viability of P. mirabilis incubated in serial
352 dilutions of D-imidazole lactate. Overnight cultures were subcultured to mid log phase, washed
353 in potassium phosphate buffer, and diluted 1:10 in either (C,D) potassium phosphate buffer or
354 human urine (E) with and without D-imidazole lactate. Samples were incubated at 37°C with
(§1) (1 picture or pasted object on this page, not shown here)

P. stuartii BE2467 = test: Growth and viability of P. stuartii in dampening metabolites; format: cell-based, Providencia stuartii
Protocol: (§2) 478 Supplementary Figure 20. Growth of M. morganii, P. stuartii and UTI MRSA incubated in
(§3) 479 dampening metabolites. M. morganii TA43 (A,D,G), P. stuartii BE2467(B,E,H), UTI MRSA
(§4) 480 (C,F,I) were incubated in urease dampening metabolites to assess impact on growth. Bacteria
(§5) 481 were cultured for ~18 hours in LB (Mm and Ps) or BHI (MRSA) broth, then diluted 1:100 into
(§6) 482 fresh broth with (A-C) the highest concentrations of dampening metabolites assessed for urease
(§7) 483 inhibition or (D-F) serial dilutions of D-imidazole lactate. Bacterial suspensions were incubated
(§8) 484 at 37 °C with double-orbital shaking, and OD600 was measured every 15 minutes for 18 hours.
(§9) 485 Error bars represent mean ± standard deviation (SD) from at least 3 technical replicates, and
(§10) 486 graphs are representative of 3 independent biologic experiments. (G-I) Viability of incubated in
(§11) 487 Mm, Ps or MRSA incubated in serial dilutions of D-imidazole lactate. Overnight cultures were
as §1
(§12) 488 subcultured to mid log phase, washed in potassium phosphate buffer, and diluted 1:10 in
(§13) 489 potassium phosphate buffer with and without D-imidazole lactate. Samples (n=3) were incubated
(§14) 490 at 37°C with aeration for one hour then plated and enumerated for colony forming units (CFU).

M. morganii TA43 = test: Growth and viability of M. morganii in dampening metabolites; format: cell-based, Morganella morganii
Protocol: as §2, §3, §4, §5, §6, §7, §8, §9, §10, §11, §1, §12, §13, §14

M. morganii urease = test: Urease activity assay, whole cell M. morganii TA43; format: cell-based, Morganella morganii
Protocol: (§15) Urease activity was measured as described previously in triplicate with at least three biological replicates[21]. Briefly, bacteria were cultured for ~18 h in LB broth, concentrated to an OD600 of 4, washed once in saline, and diluted (1:10 for P. mirabilis and 1:50 for P. stuartii and M. morganii) into candidate dampening metabolites in potassium phosphate buffer or human urine pH7 and supplemented with 500 mM urea and 0.01% phenol red. Bacterial suspensions were distributed into a 96-well plate, incubated at 37 °C with double-orbital shaking in a Synergy H1 plate reader (BioTek), and absorbance (OD562) was measured every 60 seconds for 180 minutes. Isogenic urease mutants (Supplementary Data 1) served as negative controls for P. mirabilis and P. stuartii and a vehicle control served as a negative control for M. morganii.

P. stuartii urease = test: Urease activity assay, whole cell P. stuartii BE2467; format: cell-based, Providencia stuartii
Protocol: as §15

UTI MRSA urease = UTI MRSA urease activity assay; format: cell-based, Staphylococcus aureus; details: whole cell, urease broth
Protocol: 190 Omega and visualization was carried out using ESPript 3.0 (69), enabling comparison across
191 different clinical isolates. Urease genes, including the full operon from ureA to ureR, were
192 identified and extracted from the prokka annotated genomes. The extracted protein sequences
193 were subjected to sequence alignment using Clustal Omega and visualization was carried out
194 using ESPript 3.0 [8], enabling comparison across different clinical isolates.
195 UTI MRSA urease activity assay. The UTI MRSA urease assay was adapted from a recently-
196 published semi quantitative assay to measure urease activity in bacterial species with low overall
197 activity under standard conditions (50). Dampening metabolites were directly dissolved in urease
198 broth (1 g tryptone (RPI; CAS No. 91079-40-2), 1 g D(+)-glucose (RPI; CAS No. 50-99-7), 2 g
199 potassium phosphate monobasic anhydrous (VWR; Lot: 20C1356567), 5 g sodium chloride
201 of MilliQ water, pH 5.5, sterilized via autoclaving). UTI MRSA strains from overnight cultures
202 were harvested by centrifugation for 5 minutes at 10,000 g, washed with 1 volume of 1X
203 Phosphate Buffered Saline (PBS), and resuspended in urease broth. Bacterial cultures were […]
205 measured at 415 nm, 560 nm, and 600 nm every 20 mins for 24 hours, shaking at 37°C using a
206 BioTek Synergy|H1 microtiter plate reader. Urease activity was calculated by dividing the OD […]

UTI MRSA = test: Growth and viability of UTI MRSA in dampening metabolites; format: cell-based, Staphylococcus aureus
Protocol: as §2, §3, §4, §5, §6, §7, §8, §9, §10, §11, §1, §12, §13, §14

[1] = test system: isolated guinea pig bladders; details: cited from earlier work
[2] = Buffering capacity assay (NaOH titration, phenol red); format: physicochemical; details: high concentrations of metabolite in potassium phosphate buffer with phenol red
Protocol: Known concentrations of sodium hydroxide were added to each well of a 96 well plate in combination with candidate dampening metabolite of interest buffered 1:10 in potassium phosphate buffer pH7. 0.01% phenol red was added to each well, and absorbance (OD562) was measured in a Synergy H1 plate reader (BioTek).

[3] = incubation in potassium phosphate, CFU

O.O=C(O)[C@H](O)Cc1cnc[nH]1 [D-imidazole lactate, D-imidazolelactic acid hydrate]
Growth of P. mirabilis in LB broth (P. mirabilis; LB broth, 18 hours, OD600): perturbed
antimicrobial activity against P. mirabilis (P. mirabilis; incubation in human urine): less-pronounced activity
antimicrobial activity against P. mirabilis (P. mirabilis; incubation in potassium phosphate): robust antimicrobial activity
growth of P. stuartii (P. stuartii BE2467; LB broth): perturbed growth
antimicrobial activity against P. stuartii BE2467 (P. stuartii BE2467; [3]): robust antimicrobial activity
growth of M. morganii (M. morganii TA43; LB broth): perturbed growth
antimicrobial activity against M. morganii TA43 (M. morganii TA43; [3]): robust antimicrobial activity
urease activity in M. morganii (M. morganii urease): most potent urease inhibition
urease activity in P. stuartii (P. stuartii urease): most potent urease inhibition
urease activity in MRSA (UTI MRSA urease): least potent
growth of UTI MRSA (UTI MRSA; BHI broth): perturbed growth
antimicrobial activity against UTI MRSA (UTI MRSA; [3]): less-pronounced antimicrobial activity
reduction in CFUs of UTI MRSA (UTI MRSA; one h incubation in potassium phosphate buffer): one log reduction

NCCc1c[nH]cn1 [Histamine, histamine dihydrochloride]
response of isolated guinea pig bladders [1]: induce a contractile response

Cl.O=C(O)Cc1cnc[nH]1 [4-imidazole acetate, 2-(1H-Imidazol-5-yl)acetic acid hydrochloride]
buffering capacity: absorbance (OD562) across NaOH concentrations [2]: consistent reduction in absorbance compared to the control
